Measured values taken from publication PMC6009956, “Design, synthesis and biological activity of N^4-phenylsubstituted-7H-pyrrolo[2,3-d]pyrimidin-4-amines as dual inhibitors of aurora kinase A and epidermal growth factor receptor kinase” (Journal of Enzyme Inhibition and Medicinal Chemistry, 2017).
Where two headings read alike, the source gives them in different places.

How the values were obtained:
AURKB = molecular target: T1, AURKB (Homo sapiens, UniProt Q96GD4); experiment: DiscoverX competition binding assay, AURKB; details: read-out: Binding constant (Kd) AURKB
T1 construct: purchased DiscoverX Corporation (assay run externally by the vendor)
Description: (§1) The assay was performed externally at DiscoverX Corporation using a competition binding assay that quantitatively measures the ability of a compound to compete with an immobilised, active-site directed ligand[24]. The assay is performed by combining three components: DNA-tagged kinase, immobilised ligand and a test compound. The ability of the test compound to compete with the immobilised ligand was measured via quantitative PCR of the DNA tag. An 11-point 3-fold serial dilution of each test compound was prepared in 100% of DMSO at 100× final test concentration and subsequently diluted to 1× in the assay (final DMSO concentration = 1%). […] Binding constants (Kd) were calculated with a standard dose-response curve using the Hill equation.
(§2) Binding Affinities for EGFR, AURKA and AURKB
(§3) The assay was performed externally at DiscoverX Corporation using a competition binding assay that quantitatively measures the ability of a compound to compete with an immobilized, active-site directed ligand for target kinases AURKA, AURKB and EGFR.23 The assay is performed by combining three components: DNA-tagged kinase; immobilized ligand; and a test compound. The ability of the test compound to compete with the immobilized ligand was measured via quantitative PCR of the DNA tag. […] Compound Kds were determined using a compound top […]

BHY cells = experiment: Cell killing, PI staining and FACS, BHY; format: cell-based
Description: (§4) FADU, BHY, SAS and CAL cell lines were obtained from ATCC-LGC and were cultured in DMEM (Invitrogen, Germany) supplemented with 10% of heat activated bovine serum (FBS, PAA, Germany), 1% of glutamine, 1% of penicillin-streptomycin (Invitrogen, Germany). To measure proliferation, SCCHN cells were split, reseeded (5 × 10^5 in 25 cm^2 flasks) and counted at the indicated time points. Cells were then replated at the initial density. The fold increase in cell number was calculated, all given results are based on triplicate experiments. To assess cell death 5 × 10^5 cells were stained with propidium iodide (PI, Sigma, Germany). Following incubation, cells were washed, resuspended in PBS, and analysed by flow cytometry. The fraction of PI-positive cells is reported as dead cell fraction.
(§5) Figure 3. […] Cells were incubated with compound 2 for 48 h and then subjected to PI staining and FACS analysis. PI-positive cell fraction as measure of cell death is reported. (B) Four SCCHN cell lines were incubated with 100 μM of compound 2 and counted on the indicated days. Experiments in triplicates, fold growth shown. (C) EGFR expression of SCCHN cell lines. EGFR high and low as detected by western blot analysis (D) The SCCHN cell lines were incubated with 100 μM of compound 2 for 72 h. Percent PI positive cells are given. Experiments in triplicates.

FADU cells = experiment: Cell killing, PI staining and FACS, FADU; format: cell-based
Description: as §4, §5

CAL cells [1] = experiment: Cell killing, PI staining and FACS, CAL; format: cell-based; details: 100 µM, 72 h
Description: as §4, §5

SAS cells [2] = experiment: Cell killing, PI staining and FACS, SAS; format: cell-based; details: 100 µM, 72 h
Description: as §4, §5

CAL cells [3] = experiment: Proliferation (cell counting), CAL; format: cell-based; details: 100 µM
Description: as §4, §5

SAS cells [4] = experiment: Proliferation (cell counting), SAS; format: cell-based; details: 100 µM
Description: as §4, §5

[5] = test system: EGFR (pEGFR, pERK, p-AKT) in BHY cells; experiment: Western blot of EGFR downstream targets in BHY cells; format: cell-based; details: 100 μM
Description: (§6) Protein extracts (50 μg per lane) were electrophoretically separated on SDS-PAGE gels, transferred to membranes (Protran, Schleicher & Schuell, Dassel, Germany) and blotted with specific antibodies (actin, aurora A, aurora B: all from Sigma, Munich, Germany; S10-HH3: Millipore, Schwalbach, Germany; EGFR: Santa Cruz, Heidelberg, Germany; pEGFR: Invitrogen, Darmstadt, Germany; pAKT, pERK: both from New England Biolabs, Frankfurt, Germany).
(§7) Figure 4. Effects of compound 2 on EGFR and aurora kinases in growing SCCHN cell lines (A) Western blot analysis of EGFR (pEGFR, pERK, p-AKT) and aurora A (p-HH3) downstream target proteins following incubation with 100 μM compound 2 for the indicated time points in BHY and FADU SCCHN cell lines. (B) BHY and CAL cell lines treated for the indicated time points with 200 nM cetuximab. Western blot analysis of EGFR downstream targets. (long exposure and short exposure). […] Western blot analysis of p-HH3 at the indicated time points. Asterisk (*) represents unspecific band.

[6] = test system: Phosphorylated histone H3 (p-HH3) in BHY and FADU SCCHN cell lines; experiment: Western blot of p-HH3 in BHY and FADU cells; format: cell-based; details: 100 μM
Description: as §6, §7

EGFR [7] = molecular target: T2, EGFR (Homo sapiens, UniProt P00533); experiment: ADP-Glo kinase assay, EGFR; format: biochemical; parameters: purchased BPS Bioscience (assay run externally by the vendor)
EGFR [8] = molecular target: T2, EGFR; experiment: DiscoverX competition binding assay, EGFR; parameters: purchased DiscoverX Corporation (assay run externally by the vendor); details: read-out: Binding constant (Kd) EGFR
Description: as §1, §2, §3

T2 sequence (P00533 25-1210): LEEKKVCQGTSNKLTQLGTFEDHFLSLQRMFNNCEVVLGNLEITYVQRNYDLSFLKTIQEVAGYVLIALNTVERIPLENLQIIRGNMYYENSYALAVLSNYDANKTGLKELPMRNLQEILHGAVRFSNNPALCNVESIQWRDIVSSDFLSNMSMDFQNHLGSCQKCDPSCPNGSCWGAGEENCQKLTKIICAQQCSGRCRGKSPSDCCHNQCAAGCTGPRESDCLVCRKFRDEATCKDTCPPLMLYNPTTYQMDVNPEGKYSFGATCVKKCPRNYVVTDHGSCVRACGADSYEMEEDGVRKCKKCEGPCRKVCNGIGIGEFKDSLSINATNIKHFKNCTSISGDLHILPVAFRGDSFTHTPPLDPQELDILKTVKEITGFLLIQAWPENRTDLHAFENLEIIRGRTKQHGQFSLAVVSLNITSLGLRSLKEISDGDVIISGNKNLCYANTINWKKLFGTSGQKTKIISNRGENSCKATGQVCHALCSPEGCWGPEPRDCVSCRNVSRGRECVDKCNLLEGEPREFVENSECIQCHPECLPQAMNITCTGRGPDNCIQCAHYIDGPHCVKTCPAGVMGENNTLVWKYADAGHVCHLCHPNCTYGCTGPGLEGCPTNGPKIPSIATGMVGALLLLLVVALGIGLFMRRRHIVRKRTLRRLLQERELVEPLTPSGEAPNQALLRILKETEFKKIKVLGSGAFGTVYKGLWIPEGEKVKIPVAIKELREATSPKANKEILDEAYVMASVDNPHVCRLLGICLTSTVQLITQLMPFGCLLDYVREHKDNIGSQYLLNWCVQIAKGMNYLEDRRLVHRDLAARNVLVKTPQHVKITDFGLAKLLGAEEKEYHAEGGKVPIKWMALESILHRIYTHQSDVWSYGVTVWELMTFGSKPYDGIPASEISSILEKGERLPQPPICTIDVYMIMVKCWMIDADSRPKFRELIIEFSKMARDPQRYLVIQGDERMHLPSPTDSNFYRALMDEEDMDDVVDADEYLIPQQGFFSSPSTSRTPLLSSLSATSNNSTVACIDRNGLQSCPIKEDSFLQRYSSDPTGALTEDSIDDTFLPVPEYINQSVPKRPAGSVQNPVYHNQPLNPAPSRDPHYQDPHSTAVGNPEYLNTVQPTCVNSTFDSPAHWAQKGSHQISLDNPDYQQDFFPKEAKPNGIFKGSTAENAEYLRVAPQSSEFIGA
T1 sequence (Q96GD4 whole entry): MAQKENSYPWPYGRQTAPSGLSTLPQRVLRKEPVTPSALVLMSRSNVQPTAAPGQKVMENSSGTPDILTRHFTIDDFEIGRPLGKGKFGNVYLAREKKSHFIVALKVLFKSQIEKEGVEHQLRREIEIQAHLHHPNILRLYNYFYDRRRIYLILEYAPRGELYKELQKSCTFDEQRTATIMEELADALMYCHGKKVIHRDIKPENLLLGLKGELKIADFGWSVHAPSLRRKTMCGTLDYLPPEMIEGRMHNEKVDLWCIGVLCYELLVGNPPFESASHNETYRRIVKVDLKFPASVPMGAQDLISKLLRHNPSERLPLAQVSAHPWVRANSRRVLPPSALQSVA

- Kd (AURKB): 4800 nM
- EGFR inhibition (in words) (EGFR [7]): single-digit nanomolar EGFR inhibition
- IC50 (EGFR [7]; 10 µM ATP, triplicate, read-out: EGFR IC50 ± SD): 3.76 ± 0.12 nM
- IC50 (EGFR [7]; 10 µM ATP/0.2 mg/ml Poly-Glu-Tyr, read-out: EGFR IC50 (dose-response curve, supplement)): 3.8 nM
- EGFR % Activity Set1 (EGFR [7]; Log[nM] 0): 43%
- EGFR % Activity Set2 (EGFR [7]; Log[nM] 0): 41%
- EGFR % Activity Set3 (EGFR [7]; Log[nM] 0): 41%
- EGFR % Activity Set1 (EGFR [7]; Log[nM] 1.0): 29%
- EGFR % Activity Set2 (EGFR [7]; Log[nM] 1.0): 29%
- EGFR % Activity Set3 (EGFR [7]; Log[nM] 1.0): 28%
- EGFR % Activity Set1 (EGFR [7]; Log[nM] 1.5): 11%
- EGFR % Activity Set2 (EGFR [7]; Log[nM] 1.5): 9%
- EGFR % Activity Set3 (EGFR [7]; Log[nM] 1.5): 11%
- EGFR % Activity Set1 (EGFR [7]; Log[nM] 2.0): 6%
- EGFR % Activity Set2 (EGFR [7]; Log[nM] 2.0): 6%
- EGFR % Activity Set3 (EGFR [7]; Log[nM] 2.0): 6%
- EGFR % Activity Set1 (EGFR [7]; Log[nM] 2.5): 3%
- EGFR % Activity Set2 (EGFR [7]; Log[nM] 2.5): 2%
- EGFR % Activity Set3 (EGFR [7]; Log[nM] 2.5): 3%
- EGFR % Activity Set1 (EGFR [7]; Log[nM] 3.0): 1%
- EGFR % Activity Set2 (EGFR [7]; Log[nM] 3.0): 1%
- EGFR % Activity Set3 (EGFR [7]; Log[nM] 3.0): 1%
- EGFR % Activity Set1 (EGFR [7]; Log[nM] 3.5): 1%
- EGFR % Activity Set2 (EGFR [7]; Log[nM] 3.5): 1%
- EGFR % Activity Set3 (EGFR [7]; Log[nM] 3.5): 0%
- EGFR % Activity Set1 (EGFR [7]; Log[nM] 4.0): 0%
- EGFR % Activity Set2 (EGFR [7]; Log[nM] 4.0): 0%
- EGFR % Activity Set3 (EGFR [7]; Log[nM] 4.0): 0%
- EGFR % Activity Set1 (EGFR [7]; Log[nM] 4.5): 0%
- EGFR % Activity Set2 (EGFR [7]; Log[nM] 4.5): 0%
- EGFR % Activity Set3 (EGFR [7]; Log[nM] 4.5): 0%
- EGFR % Activity Set1 (EGFR [7]; Log[nM] 5.0): 0%
- EGFR % Activity Set2 (EGFR [7]; Log[nM] 5.0): 0%
- EGFR % Activity Set3 (EGFR [7]; Log[nM] 5.0): 0%
- Kd (EGFR [8]): 67 nM
SMILES: Brc1cccc(Nc2ncnc3[nH]ccc23)c1 [Compound 2, N^4-(3-bromophenyl)-7H-pyrrolo[2,3-d]pyrimidine-4-amine]
- Cell killing (PI positive cells) (BHY cells; 100 µM, 72 h): efficient cell killing
- IC50 (BHY cells; 48 h, read-out: IC50 cellular killing (PI-positive fraction)): 150000 nM
- Cell killing (PI positive cells) (FADU cells; FADU, 100 µM, 72 h): efficient cell killing
- IC50 (FADU cells; Homo sapiens, FaDu, 48 h, read-out: IC50 cellular killing (PI-positive fraction)): 150000 nM
- Cell killing (PI positive cells) (CAL cells [1]): efficient cell killing
- Cell killing (PI positive cells) (SAS cells [2]): efficient cell killing
- Cell growth (fold growth) (CAL cells [3]): completely inhibited cell growth
- Cell growth (fold growth) (SAS cells [4]): completely inhibited cell growth
- EGFR-mediated phosphorylation steps (pEGFR, pERK, p-AKT) [5]: modified
- Effect on histone p-HH3 [6]: Modest effects
